According to a melting point compilation (Tetko et al.; mined from patent text by program, amines drawn as free bases though some values may be those of a salt):

melting point [°C]	SMILES
161 to 162	NS(=O)(=O)c1ccc(N2N=C(C(F)(F)F)CC2c2ccc(F)cc2F)cc1 (stereo not drawn)
72 to 73	O=C(CCCCCCCCCCCNC(=O)OCc1ccccc1)OC(=O)CCCCCCCCCCCNC(=O)OCc1ccccc1
160	CNc1nc2ccccc2cc1[N+](=O)[O-]
214 to 215	CN1C(=O)C2(COc3cc4c(cc32)OCCO4)c2c(C(=O)NCc3ccccn3)cccc21 (stereo not drawn)
272 to 274	CC(C)(C)c1nc2c(N)nc(-c3ccncc3)nc2[nH]1
133 to 136	CC(C)(CO)c1cc(Cl)nnc1Cl
135 to 136	Cc1c(OCCCSc2ccc3ncc([N+](=O)[O-])n3n2)ccnc1CO
142 to 143	CCCCOCCOc1ccc(-c2ccc3c(c2)C=C(C(=O)Nc2ccc(SCc4nccn4CCCC(N)=O)cc2)CCN3CC(C)C)cc1
192 to 193	CC(C)(C)OC(=O)N1CCCC2(CCN(c3ccc4nc(-c5ccc(F)cc5)c(-c5ccnc6[nH]ccc56)n4n3)CC2)C1
201	Oc1ncnc2c1nc(CC1CCN(CC3COc4ccccc4O3)CC1)n2Cc1ccc(F)cc1 (stereo not drawn)
92 to 116	Cn1nc2c(-c3ccc(Cl)cc3Cl)cccc2c1CCc1ncn[nH]1
103 to 104	CC(C)(C)OC(=O)CON=C(C(=O)O)c1ccsc1
92 to 93	COc1cc(CO)c(-n2cccc2)cc1OC
148 to 150	CN(CCN)CCNC(=O)c1nc(Br)c(N)nc1N
79 to 80	COc1cc(Cc2cnc(NCCSCc3csc(CN(C)C)n3)[nH]c2=O)ccn1
142	CSc1nn(Cc2cccc(C(F)(F)F)c2)c(N)c1C#N
63 to 65	CCc1cc(N)c([N+](=O)[O-])cc1CC
138 to 141	CC(=O)O[C@@H]1[C@H](OC(C)=O)[C@@H](C)O[C@H]1n1c(Cl)nc2c(Br)c(Cl)c(Cl)cc21
232 to 234	CCCC1c2cc(C(C)(C)C)cc(C(C)(C)C)c2OP(=O)(c2ccccc2)Oc2c1cc(C(C)(C)C)cc2C(C)(C)C (stereo not drawn)
208 to 210	S=C(N/N=C/c1cccnc1)Nc1ccccc1
192 to 210	CNC(=O)c1cc(C)ccc1Nc1nc(Cl)ncc1Cl
93.5 to 94.5	Cc1cc(-c2ccc(OC(C)C(O)CCc3cccnc3)cc2)ccc1C#N (stereo not drawn)
60 to 62	COc1ccc(C=O)cc1OC1CC=CC1
60	CCc1c(CC(O)N2CCN(c3cc(C)ccn3)CC2)c2cccc3c2n1CCC3 (stereo not drawn)
205 to 207	O=c1[nH]c2sccc2c(=O)n1CCN1CCC(=C(c2ccc(F)cc2)c2ccc(F)cc2)CC1

melting point [°C]	SMILES
229	CNc1nc(Br)cn2c(Br)cnc12
127 to 128	Cc1c(C)c(N2CCN(C(=O)OC(C)(C)C)CC2)c(C)c2c1OC(C)(C)C2N1CCCC1 (stereo not drawn)
318 to 320	O=c1cc(-c2ccncc2)nc2n1CCN2
86 to 87	COc1ccc(CN2CCN(CCCN3CCN(Cc4ccc(OC)cc4)CC3)CC2)cc1
75 to 76	O=[N+]([O-])c1ccc(F)c2ccccc12
125 to 126	CC(C)(C)C(=O)OC1=CC(=O)C(=O)c2ccccc21
218	CN1CC=C(C2=C(C#N)C(c3cccc4nonc34)c3c[nH]nc3N2)CC1 (stereo not drawn)
94 to 95	N#CC(Cl)Cc1ccc(Cl)cc1C(=O)c1ccccc1F (stereo not drawn)
150 to 152	Cc1ccccc1-c1cc(N2CCC(O)CC2)ncc1C(=O)N(C)Cc1cc(C(F)(F)F)cc(C(F)(F)F)c1
140 to 141	COc1ccc(C(=O)c2ccccc2)cc1OCCCN1CCC(c2noc3cc(F)ccc23)CC1
> 300	CC1CC(=O)Nc2nc(C#N)c3ncccc3c21 (stereo not drawn)
190 to 191	COC(=O)C1=C(C)NC(c2ccccc2)=C(C(=O)O)C1c1ccc([N+](=O)[O-])cc1 (stereo not drawn)
177 to 179	CCCCC1C=C(N)c2ncccc2N1CC(C)(C)O (stereo not drawn)
124 to 126	NC(=O)N(O)Cc1sccc1Sc1ccc(Br)cc1
275 to 277	CCn1nc2c(N)nc3ccccc3c2c1CC1(F)CCOCC1
115 to 117	COc1ccc(N2C(=O)Cc3ccccc32)cc1
107 to 110	COc1ccc2cc(CC(O)C(C)=O)ccc2c1 (stereo not drawn)
67 to 69	CCCCn1cnnc1S
200 to 202	CS(=O)(=O)c1ccc(Cn2c3c(c4cc(F)cc(F)c42)CCCC(CC(=O)O)C3)cc1 (stereo not drawn)
138	C=CCOc1ccc2ccc(N)nc2n1
88 to 90	O=C1CCCc2ccc(OCCCC(=O)N3CCOCC3)cc21
58 to 59	N#CCCc1cncnc1N[C@H]1CC[C@@H](c2ccccc2)CC1
93 to 95	COc1ccc(NC(=O)c2ccc(-c3ccc(-c4noc(C)n4)cc3)c(Cl)c2)cc1N1CCN(C)CC1
179 to 180	COc1cc(COc2nn(-c3ccccc3)cc2CC(=O)O)ccc1OCc1nc(-c2ccco2)oc1C
188 to 190	Cc1cccnc1C=CCN1CCc2nc(N)sc2CC1

melting point [°C]	SMILES
230 to 231	COc1ccc(C(=O)Nc2ccc(C(=O)O)cc2)cc1C1(C)CCCCC1
104 to 105	CC(=O)C1=C(C)c2ccccc2C1(C)C
106 to 107	CNc1ccnc(C2=Cc3ccccc3CC2)c1
129 to 131	CCOC(=O)C(C)(C)Oc1ccc(CNC(=O)c2sc(-c3ccc(C(C)C)cc3)nc2C)cc1C
200	CCCc1c(-c2cc(=O)c3c(O)cc(O)cc3o2)ccc(OC)c1O
205 to 207	CC(C(=O)O)c1ccc2c(c1)Cc1cc(O)ccc1-2 (stereo not drawn)
67	CCCC(CCC)(CCC)C(=O)O
108 to 115	COc1cccc(-c2cccc3c2S(=O)(=O)NC(C2CCCCC2)N3)c1 (stereo not drawn)
110 to 112	Cc1c(-c2ccc(OC3CCCC3)cc2)n(Cc2ccc(OCCBr)cc2)c2ccc(OCc3ccccc3)cc12
134 to 137	CCCCCNc1nc(SC)[nH]c2nccc1-2
215	COc1cc2nc(N3CCN(C#N)CC3)nc(N)c2cc1OC
196	N#Cc1cc(F)cc(-c2cc([N+](=O)[O-])c3c(c2)C2(CCCCC2)C(=O)N3)c1
246 to 248	CC(C)C1OC(=Nc2nccs2)c2c1nc1c(C(F)(F)F)cccc1c2O (stereo not drawn)
189 to 190	CC(CNC(=O)c1cccc(Oc2ccccc2)c1)N(O)C(N)=O (stereo not drawn)
54 to 56	CSC(SC)=C1CCC2CC=CC=C2C1=O (stereo not drawn)
162 to 164	CNC(=S)NCCCCCCc1csc(NC(=N)N)n1
127 to 130	CC(=O)c1cc2c(c(Br)c1O)CCCC2
286 to 289	CCOC(=O)c1cnc2cc(-c3ccccc3)sc2c1O
188 to 190	CC(=O)OC1=C(c2nnc(C)o2)N(C)S(=O)(=O)c2ccccc21
135 to 137	Cc1cc([N+](=O)[O-])c(C)c(Cl)c1Oc1ccc(Cl)c2ccccc12
69 to 71	CCOC(=O)C(C)Oc1ncn(-c2ccc(Cl)c(Cl)c2)n1 (stereo not drawn)
97 to 99	COC(=O)C1=Cc2cccc(C(F)F)c2OCC1
221 to 222	COc1c(N2CCN(C)CC2)c(F)cc2c(=O)c(C(=O)O)cn(C3CC3)c12
> 250	Nc1ncc(C(=O)Cl)cc1Cl
136 to 137	COc1ccc(S(=O)(=O)Nc2ccccc2NC(=O)c2cccs2)cc1

melting point [°C]	SMILES
204 to 206	CC(=O)OC1CCN(C2c3cc4nonc4cc3OC(C)(C)C2O)C(=O)C1 (stereo not drawn)
116 to 117	CN1CCC(Cc2ccccc2)(Oc2ccc([N+](=O)[O-])cc2)CC1
95 to 98	CCCN(CCC)c1ccc(S(=O)(=O)NCCCCC(=O)O)cc1
226	NC(=S)c1cc(Cl)cc2cc(Cl)cnc12
153	CCOC(=O)N1CCC2(CC1)C(=O)NCN2c1ccc(F)cc1
250 to 255	C[C@@H](CO)n1cc(C(=O)O)c(=O)c2cc(F)c(N3CCN(C)CC3)c(F)c21
117 to 122	O=S(Cc1ccccn1)c1cnc2ccccc2n1 (stereo not drawn)
168 to 170	CC(C)(C)C(NC(=O)C(=O)Nc1cccnc1)NC(=O)c1ccc(Cl)cc1 (stereo not drawn)
> 140	CC1NC(=O)NN=C1c1ccc(NC(=O)Nc2ccccc2)cc1 (stereo not drawn)
139 to 143	CN(C)c1ccc2c(c1)Sc1cc(N(C)C=O)ccc1N2C=O
262 to 264	Cn1c(C(=O)N=[N+]=[N-])c(-c2ccccc2)c2cc([N+](=O)[O-])ccc21
107 to 108	CC(=O)C(=NNc1ccc(OC(C)(C)C)cc1)Sc1ccc(Cl)cc1
133 to 134	CC(=O)O[C@@](Cn1cncn1)(c1ccccc1F)[C@@H](C)n1ccnn1
139 to 140	O=C(O)CCC(O)c1ccc(-c2ccccc2)cc1 (stereo not drawn)
56 to 57	O=S1(=O)C=C(Br)C=C1CO
102 to 104	COC(=S)c1cc(N)cc(N)c1C
265 to 300	Cc1[nH]c(=O)c(C(F)(F)C(F)(F)F)c2c1CC(c1ccncc1)CC2 (stereo not drawn)
298 to 301	COc1ccc2cc3c(c(-c4ccc(C)cc4)c2c1)C(=O)NC3=O
81 to 82	Cc1cc(C)cc(C(=O)c2c(C(C)C)c(=O)[nH]c(=O)n2CC2=CC(CO)C(CO)C2)c1 (stereo not drawn)
205	N#Cc1cccc(CN2C(=O)c3ccccc3C2=O)n1
228 to 229	COc1cc(C)nc2ccc(NC(=O)C=Cc3ccccc3Cl)cc12
144 to 146	Cc1ccccc1N1CCc2c(C)nc3c(O)cccc3c21

SMILES	melting point [°C]
O=C(OC1CCCCCCC1)c1ncn2c1[C@@H]1CCCN1C(=O)c1c(Cl)cccc1-2	183 to 184
C=C1C[C@]2(C)C(=O)CC[C@H]2[C@@H]2CCC3=CC(=O)CC[C@]3(C)[C@@H]12	157 to 160
Cc1nn(-c2ccc(C#N)c(Cl)c2)c(C)c1Cc1ccc(C(=O)N2CC(O)C2)cc1	115 to 117
C#CCNC1=Nc2c(c(C)nn2C)C(c2ccccc2)=NC1	193 to 195
CC(=O)NC(NCC(=O)OCc1ccccc1)C(=O)NCc1ccccc1 (stereo not drawn)	133 to 135
COc1ccc(N2Cc3ccccc3P2(C)=O)cc1 (stereo not drawn)	148 to 150
